Reference: PubChem BioAssay (NCI)
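Cells were grown in 96-well plates and exposed to each compound for 48 hours at five concentrations; endpoints were interpolated linearly between bracketing concentrations, or set to the highest concentration if not reached. TGI is the concentration that stops growth completely.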

How the values were obtained:
Assay in all cases: DTP human tumour cell line panel, 48 h
[1] = test system: HOP-92 NSCLC
[2] = test system: SW-620 colon
[3] = test system: UACC-257 melanoma
[4] = test system: HL-60(TB) leukemia
[5] = test system: SF-539 CNS
[6] = test system: SN12C renal
[7] = test system: OVCAR-8 ovarian
[8] = test system: UACC-62 melanoma
[9] = test system: UO-31 renal
[10] = test system: HCC-2998 colon
[11] = test system: M14 melanoma
[12] = test system: DU-145 prostate
[13] = test system: A498 renal
[14] = test system: MDA-N
[15] = test system: MDA-MB-231 breast
[16] = test system: CAKI-1 renal
[17] = test system: PC-3 prostate

SMILES | TGI [1] | TGI [2] | TGI [3] | TGI [4] | TGI [5] | TGI [6] | TGI [7] | TGI [8] | TGI [9] | TGI [10] | TGI [11] | TGI [12] | TGI [13] | TGI [14] | TGI [15] | TGI [16] | TGI [17]
COc1cc(-c2cccs2)sc1-c1cccs1 | 78.9 µM | > 100 µM | > 100 µM | 36.6 µM | > 100 µM | > 100 µM | > 100 µM | > 100 µM | > 100 µM | > 100 µM | > 100 µM |  |  |  |  |  | 
COC(=O)c1cccc(C)c1C1CN=NC12Cc1cc(C)cc(C)c1C2=O (stereo not drawn) | > 100 µM | > 100 µM | > 100 µM | 47.5 µM | > 100 µM | > 100 µM | > 100 µM |  | > 100 µM | 76.7 µM | 93.6 µM | > 100 µM | > 100 µM | > 100 µM | 77.6 µM | > 100 µM | 
COc1cc2c(cc1O)[C@H](C)C(c1ccc(OC)c(OC)c1)O2 (stereo partly drawn) | 23.1 µM | 19.4 µM | 35.9 µM | 13.7 µM | 38.6 µM |  | 35.1 µM | 10.1 µM | 64 µM | > 100 µM | 15.9 µM |  | > 100 µM |  |  | 15.9 µM | 
Cc1ccc(C(=O)OC(C(=O)O)C(OC(=O)c2ccc(C)cc2)C(=O)O)cc1 (stereo not drawn) (tested in a mixture with another compound) | 11.8 µM | 10.2 µM | 13.7 µM | 4.08 µM | 25.2 µM | 32 µM | 31.6 µM | 19.3 µM | 14.5 µM | 10.1 µM |  |  | 24.5 µM |  |  | 21.2 µM | 
CON(C)C(=O)C(C)N(Cc1ccccc1)Cc1ccccc1 (stereo not drawn) | > 100 µM | > 100 µM | > 100 µM | > 100 µM | > 100 µM |  | > 100 µM | > 100 µM | > 100 µM | > 100 µM | > 100 µM | > 100 µM | > 100 µM | > 100 µM |  |  | > 100 µM
COc1cc(OCCN(C)C)c2[nH]c(C(=O)N3CC(CCl)c4ccc(N)cc43)cc2c1 (stereo not drawn) | 0.617 µM |  | 0.329 µM |  |  |  |  | 0.567 µM | 2.25 µM | 0.297 µM | 1.13 µM | 1.02 µM | 0.508 µM |  | 9.37 µM |  | 1.34 µM
COc1ccc(C2Oc3cc(OC)c(OC)cc3C2CCl)cc1OC (stereo not drawn) | > 100 µM | > 100 µM | > 100 µM | > 100 µM | > 100 µM | > 100 µM | > 100 µM | 79.5 µM | > 100 µM | > 100 µM | > 100 µM |  | > 100 µM |  |  | > 100 µM | 
O=c1[nH]c2cc(Cl)ccc2nc1/C(=N\Nc1ccccc1)C(O)c1ccc(Cl)c(Cl)c1 (stereo not drawn) | > 100 µM | > 100 µM | > 100 µM | > 100 µM | > 100 µM | > 100 µM | > 100 µM | > 100 µM | > 100 µM | > 100 µM | > 100 µM |  |  |  |  |  | 
Nc1nc(Cl)cc(OCC2(CO)CC=CC2)n1 | > 100 µM | > 100 µM | > 100 µM | > 100 µM | > 100 µM | > 100 µM | > 100 µM |  |  | > 100 µM |  | > 100 µM | > 100 µM | > 100 µM |  |  | > 100 µM
CCn1cnc2c(=S)nc(N)[nH]c21 |  | > 100 µM | > 100 µM | > 100 µM | > 100 µM | > 100 µM | > 100 µM | > 100 µM | > 100 µM | > 100 µM | > 100 µM |  |  |  |  |  | 
CCNC(=O)c1ccc(C)c(N=NN(C)C)c1 | > 100 µM | > 100 µM | > 100 µM |  | > 100 µM | > 100 µM | > 100 µM | > 100 µM | > 100 µM | > 100 µM | > 100 µM |  |  |  |  | > 100 µM | 
CCCC/C=C/C=C/C=C/CCCCCCCC(=O)OCC(COC(=O)CCCCCCC/C=C/C1C=CC(CCCC)C(C(=O)O)C1C(=O)O)OC(=O)CCCCCCC/C=C/C=C/C=C/CCCC (stereo not drawn) (tested in a mixture with another compound) | 48.1 µM | 18 µM | 34.9 µM | 41.1 µM | 39.1 µM | 44.3 µM | 44.5 µM | 29.1 µM | 34.7 µM | 40.7 µM | 29.7 µM |  | 34.4 µM |  |  | 76.1 µM | 
COCCOCOC(CCCCO)c1cc(C)c(O[Si](C)(C)C(C)(C)C)c(C)c1 (stereo not drawn) |  | 21.1 µM | 15.7 µM | 6.02 µM | 26 µM | 8.73 µM | 18.7 µM | 25.4 µM | 17.2 µM | 19.8 µM | 23.1 µM |  | 26.9 µM |  |  |  | 
Cc1ccc2nc(-c3ccccc3)cc(=O)n2c1 | > 100 µM | > 100 µM |  | > 100 µM | > 100 µM | > 100 µM | > 100 µM | > 100 µM |  | > 100 µM | > 100 µM | > 100 µM |  | > 100 µM | > 100 µM |  | > 100 µM
O=C(Nc1c(O)[nH]c(=S)[nH]c1=O)c1ccccc1 | > 100 µM | > 100 µM | > 100 µM | > 100 µM | > 100 µM | > 100 µM | > 100 µM | > 100 µM | > 100 µM |  | > 100 µM |  | > 100 µM |  |  | > 100 µM | 
COC(=O)[C@]1(C)CCC[C@@]2(C)C1CC[C@@]13C=C(C(C)C)[C@@H](CC1=O)CC23 (stereo partly drawn) |  | 83.6 µM | 62.4 µM | 36.4 µM | 37.5 µM | 41.2 µM | > 100 µM | > 100 µM | 49 µM | > 100 µM | > 100 µM | > 100 µM |  | > 100 µM | 95.7 µM | 85.2 µM | > 100 µM
O=c1cc(-c2ccc3c(c2)OCO3)[nH]c2cc3c(cc12)OCO3 | > 100 µM | > 100 µM |  | 66.6 µM | 69.1 µM | > 100 µM | 78.1 µM | > 100 µM | > 100 µM | > 100 µM | > 100 µM |  |  |  |  | > 100 µM | 
COc1cc(C2C(Cl)C(=O)N2n2cnc3ccccc3c2=O)ccc1O (stereo not drawn) |  | > 100 µM | 99.6 µM |  |  | > 100 µM | > 100 µM | > 100 µM | > 100 µM | > 100 µM | > 100 µM |  |  |  |  | > 100 µM | 
CCOC(=O)c1nnn(CCCCO)c1C(=O)OCC | > 100 µM | > 100 µM | > 100 µM |  | > 100 µM | > 100 µM | > 100 µM | > 100 µM | > 100 µM | > 100 µM |  | > 100 µM |  | > 100 µM | > 100 µM | > 100 µM | > 100 µM
CC1NC(=O)C(C)C(c2ccccc2)N(N=O)C1c1ccccc1 (stereo not drawn) | > 100 µM | > 100 µM | > 100 µM | 61.5 µM | > 100 µM | > 100 µM | > 100 µM | > 100 µM | > 100 µM | > 100 µM |  |  | > 100 µM |  |  | > 100 µM | 
Cc1ccc(Nc2nc(NNC(=O)Cc3ccccc3)nc(NNC(=O)c3ccncc3)n2)cc1 | > 10 µM | > 10 µM | > 10 µM | > 10 µM | > 10 µM | > 10 µM | > 10 µM | > 10 µM | > 10 µM | > 10 µM | > 10 µM | > 10 µM | > 10 µM | > 10 µM | > 10 µM | > 10 µM | 
CCOC(=O)c1cc(-c2ccc(OC)cc2)c([N+](=O)[O-])n1C | > 10 µM |  | > 10 µM | > 10 µM | > 10 µM | > 10 µM | > 10 µM | > 10 µM | > 10 µM | > 10 µM | > 10 µM | > 10 µM |  | > 10 µM |  |  | 
C=C1C(=O)O[C@@H]2/C=C(C)/C=C\[C@@H]3O[C@@]3(C)C[C@@H](O)C12 (stereo partly drawn) | 20.4 µM | 17.2 µM | 28.1 µM | 8.93 µM | 26 µM | 30.4 µM | 55.1 µM | 27.2 µM | 30.1 µM | 33.1 µM | 49.2 µM | 14.5 µM | 30.4 µM | > 100 µM |  | 21 µM | 73.2 µM
O=C1c2cccc3cc([N+](=O)[O-])cc(c23)C(=O)N1Nc1ccc([N+](=O)[O-])cc1[N+](=O)[O-] | > 31.6 µM | 25.3 µM | 24.1 µM | 27.5 µM | > 31.6 µM | > 73.5 µM | 21 µM | 24.5 µM | 33.1 µM | 29.2 µM | > 74.9 µM | > 46.4 µM | 41.1 µM |  | 42.9 µM | > 31.6 µM | 72.7 µM
C/C(CN1C(=O)c2ccccc2C1=O)=N\NS(=O)(=O)c1ccc(Cl)cc1 |  | > 100 µM | > 100 µM | > 100 µM | > 100 µM | > 100 µM | > 100 µM | > 100 µM | > 100 µM | > 100 µM | > 100 µM |  | > 100 µM |  |  | > 100 µM | 
COc1cc2c(/C=C3/C(=O)Nc4cccc(Cl)c43)c(Cl)[nH]c2cc1C | 22.6 µM | 5.25 µM | 10.2 µM | 4.56 µM | 3.38 µM | 3.33 µM | 11.8 µM | 4.21 µM | 17.1 µM |  | 7.78 µM | 5.66 µM | 20.7 µM |  | 3.2 µM | 7.3 µM | 11.8 µM
